{
  "source": "patent US20080167444A1",
  "about": "“Abc Transporter Inhibitor” (priority 2004, published 2008)",
  "key": {"PDR5 protein [1]": {"molecular_target": "T1, PDR5 protein (Saccharomyces cerevisiae, UniProt P33302)", "T1 construct": "expressed in transfected cells; host or cells: Saccharomyces cerevisiae W303 (MAT a Δsyr/erg3::HIS3 Δpdr5::LEU2 Δsnq2::HIS3)", "T1 sequence (P33302 whole entry)": "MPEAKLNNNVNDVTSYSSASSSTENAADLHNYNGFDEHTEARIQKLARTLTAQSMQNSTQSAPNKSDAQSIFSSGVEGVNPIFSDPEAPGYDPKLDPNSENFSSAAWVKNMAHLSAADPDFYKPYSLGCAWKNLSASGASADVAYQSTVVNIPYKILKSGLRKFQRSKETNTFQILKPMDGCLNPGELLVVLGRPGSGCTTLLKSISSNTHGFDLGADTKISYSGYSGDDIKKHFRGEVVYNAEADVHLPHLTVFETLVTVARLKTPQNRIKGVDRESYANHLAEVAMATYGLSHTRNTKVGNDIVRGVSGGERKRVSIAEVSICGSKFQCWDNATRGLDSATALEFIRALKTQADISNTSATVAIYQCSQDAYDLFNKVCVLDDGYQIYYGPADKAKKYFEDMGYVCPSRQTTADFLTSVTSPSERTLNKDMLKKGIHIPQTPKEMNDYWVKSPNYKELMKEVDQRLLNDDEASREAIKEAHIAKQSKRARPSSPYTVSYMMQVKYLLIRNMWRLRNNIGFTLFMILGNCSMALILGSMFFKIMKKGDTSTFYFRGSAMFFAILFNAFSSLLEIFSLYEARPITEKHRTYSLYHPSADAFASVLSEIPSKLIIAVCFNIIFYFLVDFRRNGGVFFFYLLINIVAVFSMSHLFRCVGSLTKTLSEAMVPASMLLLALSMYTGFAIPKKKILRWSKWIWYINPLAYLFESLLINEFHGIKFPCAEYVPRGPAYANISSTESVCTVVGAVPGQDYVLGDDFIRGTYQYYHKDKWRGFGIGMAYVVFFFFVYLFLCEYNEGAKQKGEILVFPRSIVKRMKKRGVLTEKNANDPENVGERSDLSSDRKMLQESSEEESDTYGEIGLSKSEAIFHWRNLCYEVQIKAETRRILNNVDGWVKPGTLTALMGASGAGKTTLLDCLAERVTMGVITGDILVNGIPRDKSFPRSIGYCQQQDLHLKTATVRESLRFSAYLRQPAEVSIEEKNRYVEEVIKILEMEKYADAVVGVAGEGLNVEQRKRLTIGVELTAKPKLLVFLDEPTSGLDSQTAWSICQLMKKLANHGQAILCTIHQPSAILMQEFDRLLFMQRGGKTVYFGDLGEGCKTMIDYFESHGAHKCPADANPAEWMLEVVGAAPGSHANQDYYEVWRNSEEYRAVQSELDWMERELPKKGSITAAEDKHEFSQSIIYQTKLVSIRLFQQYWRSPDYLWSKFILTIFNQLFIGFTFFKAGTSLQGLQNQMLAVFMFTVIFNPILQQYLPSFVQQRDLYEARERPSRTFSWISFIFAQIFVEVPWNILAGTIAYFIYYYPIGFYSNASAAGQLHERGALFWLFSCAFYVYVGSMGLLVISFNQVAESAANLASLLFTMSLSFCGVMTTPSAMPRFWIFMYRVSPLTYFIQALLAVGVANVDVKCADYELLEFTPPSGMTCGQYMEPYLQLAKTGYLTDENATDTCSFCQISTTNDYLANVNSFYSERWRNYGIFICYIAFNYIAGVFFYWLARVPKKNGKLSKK", "assay": "Growth inhibition of yeast with overexpressed PDR5 in the presence of cycloheximide or cerulenin (absorbance at 660 nm)", "assay_type": "cell-based", "conditions": "for IC50: IC50 (concentration for 50% growth-inhibition), IC50 of cycloheximide or cerulenin, without or with addition of 5 μg/mL enniatin mixture or FK-506; for inhibition of growth of the yeast with overexpressed PDR5: test drug at 5 μg/mL, cycloheximide or cerulenin present, static culture 30° C. 24 hours", "experimental": "(§1) Yeast with overexpressed PDR5 by transformation of the host yeast (Saccharomyces cerevisiae W303 (MAT a Δsyr/erg3::HIS3 Δpdr5::LEU2 Δsnq2::HIS3)) with the PDR5 expression vector and the host yeast were inoculated separately in 4 mL each of the minimum medium followed by shaking culture at 30° C. for 12 hours. To a 96-well microtiter plate to which cycloheximide or cerulenin of various concentrations had been added, was added purified enniatin B, B1, D, or enniatin mixture of various concentrations, followed by inoculation of the above-mentioned yeast. The volume per well was adjusted to 200 μL by addition of the minimum medium. After static culture at 30° C. for 24 hours, the extent of growth of yeast was determined for evaluation of the growth-inhibiting activity of the test drug against the yeast with overexpressed PDR5 and against the host yeast. The extent of growth of yeast was determined by measurement of absorbance at 660 nm using a microtiter plate reader (MTP-500; CORONA). The growth-inhibiting activity against the yeast with overexpressed PDR5 and against the host yeast was also determined for immunosuppressor FK-506, the positive control, which is known to inhibit yeast PDR5 protein and human MDR1 protein (P-glycoprotein)."}, "[2]": {"tested_on": "host yeast (Saccharomyces cerevisiae W303 (MAT a Δsyr/erg3::HIS3 Δpdr5::LEU2 Δsnq2::HIS3))", "assay": "Growth inhibition of the host yeast (PDR5 and SNQ2 deleted)", "assay_type": "cell-based", "conditions": "test drug elevated to 5 μg/mL; static culture 30° C. 24 hours", "experimental": "as §1"}, "PDR5-deleted host yeast": {"tested_on": "PDR5-deleted host yeast", "assay": "Rhodamine 6G accumulation in PDR5-deleted host yeast (fluorescence microscope)", "assay_type": "cell-based, Saccharomyces cerevisiae", "conditions": "drug at final concentration 25 μg/mL; compared with no addition of the drug", "experimental": "(§2) The above-mentioned strain with overexpressed PDR5 and the above-mentioned host yeast were separately subjected to shaking culture at 30° C. for 12 hours in 4 mL of the minimum medium. Then a quantity of yeast corresponding to 1.0×10^6 cells was inoculated to 4 mL of the minimum medium. Enniatin B, B1, D, enniatin mixture, or FK-506 was added to the final concentration of 25 μg/mL, and after shaking culture at 30° C. for 2 hours, 15 μL of rhodamine 6G (1 mg/mL) was added followed by culture under the same conditions for 30 minutes. After culture, the culture was washed twice with 2% glucose solution in PBS (phosphate-buffered saline) and the fluorescence in yeast cells was observed under a fluorescence microscope (Nicon ECLIPSE E400, using G-2A filter)."}, "PDR5 protein [3]": {"tested_on": "PDR5 protein", "assay": "Western blotting of PDR5 protein (quantity and stability)", "assay_type": "cell-based, yeast", "conditions": "after addition of the drug", "text": "The effects of enniatin B, B1, D, and enniatin mixture on the quantity of PDR5 protein as the translation product and on the stability of PDR5 protein were investigated by Western blotting of PDR5 protein. After addition of enniatin B, B1, D, or enniatin mixture, quantitative change of PDR5 protein was not observed, which confirmed that apparent inhibition of the function of PDR5 gene product is ascribable neither to inhibition of translation of PDR5 protein nor to reduced stability of the protein through acceleration of decomposition of PDR5 protein."}, "PDR5 protein [4]": {"molecular_target": "T1, PDR5 protein", "assay": "Rhodamine 6G accumulation in yeast with overexpressed PDR5 (fluorescence microscope)", "assay_type": "cell-based", "conditions": "drug at final concentration 25 μg/mL, 2 hours, then rhodamine 6G 30 minutes", "experimental": "as §2"}, "PDR5 gene": {"tested_on": "PDR5 gene", "assay": "PDR5 transcription activity, β-galactosidase (lacZ) reporter downstream of Pdr5 promoter", "assay_type": "cell-based, yeast", "conditions": "drug at final concentration 25 μg/mL, 8 hours; compared with no addition", "experimental": "The effect of enniatin on expression of PDR5 gene was analyzed based on measurement of the PDR5 transcription activity using β-galactosidase gene as the reporter gene. Yeast, where had been introduced a recombinant plasmid obtained by fusion of β-galactosidase gene (lacZ) in the downstream of Pdr5 promoter, was subjected to shaking culture at 30° C. for 8 hours in 4 mL of YEPD medium, and a quantity of yeast corresponding to 1.0×10^6 cells was inoculated in 4 mL of the medium. At the same time, enniatin B, B1, D, enniatin mixture, or FK-506 was added to the final concentration of 25 μg/mL. After shaking culture at 30° C. for 8 hours, 1.0×10^7 yeast cells were collected. The cells were then suspended in 1 mL of Z buffer solution (60 mM disodium hydrogen phosphate, 40 mM sodium dihydrogen phosphate, 10 mM potassium chloride, 1 mM magnesium sulfate, 50 mM […], pH 7.0). The cell suspension was treated with 45 μL of chloroform and 30 μL of 0.1% sodium dodecyl sulfate at 30° C. for 5 minutes. The suspension was then treated with 200 μL of o-NPG (o-nitrophenyl-β-D-galactopyranoside) of 4 mg/mL at 30° C. for 10 minutes. After reaction was stopped by addition of 500 μL of 1 M sodium carbonate, absorbance at 420 nm was measured to determine the activity of β-galactosidase. The activity of β-galactosidase was calculated using a unit=1000×A420/10 (reaction time). […] Thus it could be confirmed that inhibition of PDR5 function by enniatin B, B1, D, enniatin mixture, or FK-506 is not ascribable to the inhibition of transcription of PDR5 gene."}},
  "note": "Several values for one entry are separate records, joined by “and”; a condition that tells them apart may be missing. Equal entries are not always repeated.",
  "data": [
    {"smiles": "C/C=C/C/C=C/CCC(=O)[C@H]1O[C@H]1C(N)=O", "note": "[Cerulenin]", "values": [
      {"measurement": "IC50", "setting": "PDR5 protein [1]", "result": "1.5 µM and 1.57 µM"}
    ]},
    {"smiles": "C[C@@H]1C[C@@H]([C@H](O)CC2CC(=O)NC(=O)C2)C(=O)[C@@H](C)C1", "note": "[Cycloheximide]", "values": [
      {"measurement": "IC50", "setting": "PDR5 protein [1]", "result": "0.462 µM and 0.434 µM"}
    ]},
    {"smiles": "CC[C@H](C)[C@H]1C(=O)O[C@H](C(C)C)C(=O)N(C)[C@@H](C(C)C)C(=O)O[C@H](C(C)C)C(=O)N(C)[C@@H](C(C)C)C(=O)O[C@H](C(C)C)C(=O)N1C", "note": "[enniatin B1, Enniatin B1]", "values": [
      {"measurement": "inhibition of growth of the host yeast (cytotoxicity)", "setting": "[2]", "result": "not observed"},
      {"measurement": "inhibition of growth of the yeast with overexpressed PDR5", "setting": "PDR5 protein [1]", "result": "completely"},
      {"measurement": "rhodamine 6G accumulation in PDR5-deleted host yeast", "setting": "PDR5-deleted host yeast", "result": "rhodamine 6G was accumulated in yeast cells"},
      {"measurement": "quantitative change of PDR5 protein (Western blotting)", "setting": "PDR5 protein [3]", "result": "not observed"},
      {"measurement": "rhodamine 6G accumulation in yeast with overexpressed PDR5", "setting": "PDR5 protein [4]", "result": "accumulated rhodamine 6G"},
      {"measurement": "activity of β-galactosidase (PDR5 transcription activity)", "setting": "PDR5 gene", "result": "not different from that without addition of the drug"}
    ]},
    {"smiles": "CC(C)[C@H]1C(=O)O[C@H](C(C)C)C(=O)N(C)[C@@H](C(C)C)C(=O)O[C@H](C(C)C)C(=O)N(C)[C@@H](C(C)C)C(=O)O[C@H](C(C)C)C(=O)N1C", "note": "[enniatin B, Enniatin B]", "values": [
      {"measurement": "inhibition of growth of the host yeast (cytotoxicity)", "setting": "[2]", "result": "not observed"},
      {"measurement": "inhibition of growth of the yeast with overexpressed PDR5", "setting": "PDR5 protein [1]", "result": "completely"},
      {"measurement": "rhodamine 6G accumulation in PDR5-deleted host yeast", "setting": "PDR5-deleted host yeast", "result": "rhodamine 6G was accumulated in yeast cells"},
      {"measurement": "quantitative change of PDR5 protein (Western blotting)", "setting": "PDR5 protein [3]", "result": "not observed"},
      {"measurement": "rhodamine 6G accumulation in yeast with overexpressed PDR5", "setting": "PDR5 protein [4]", "result": "accumulated rhodamine 6G"},
      {"measurement": "activity of β-galactosidase (PDR5 transcription activity)", "setting": "PDR5 gene", "result": "not different from that without addition of the drug"}
    ]},
    {"smiles": "CC(C)CC1C(=O)OC(C(C)C)C(=O)N(C)C(C(C)C)C(=O)OC(C(C)C)C(=O)N(C)C(C(C)C)C(=O)OC(C(C)C)C(=O)N1C", "note": "(centres unmarked) [enniatin D, Enniatin D]", "values": [
      {"measurement": "inhibition of growth of the host yeast (cytotoxicity)", "setting": "[2]", "result": "not observed"},
      {"measurement": "inhibition of growth of the yeast with overexpressed PDR5", "setting": "PDR5 protein [1]", "result": "completely"},
      {"measurement": "rhodamine 6G accumulation in PDR5-deleted host yeast", "setting": "PDR5-deleted host yeast", "result": "rhodamine 6G was accumulated in yeast cells"},
      {"measurement": "quantitative change of PDR5 protein (Western blotting)", "setting": "PDR5 protein [3]", "result": "not observed"},
      {"measurement": "rhodamine 6G accumulation in yeast with overexpressed PDR5", "setting": "PDR5 protein [4]", "result": "accumulated rhodamine 6G"},
      {"measurement": "activity of β-galactosidase (PDR5 transcription activity)", "setting": "PDR5 gene", "result": "not different from that without addition of the drug"}
    ]}
  ]
}
